Experimental data reported in the METLIN SMRT retention time set (Domingo-Almenara et al. 2019).

assay: gradient 5% acetonitrile 3 min, to 50% in 2 min, to 85% in 15 min, held 3 min, 100 µL/min; details: column: Zorbax Extend-C18 2.1 x 50 mm; eluents: water / acetonitrile, 0.1% formic acid
In short: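 Pure standards were analyzed in mixtures of ~100 molecules using HPLC coupled to a quadrupole time-of-flight mass spectrometer, in both positive and negative ionization mode. Separation used a Zorbax Extend-C18 column (2.1 × 50 mm, 1.8 μm) at 100 μL/min, with water and acetonitrile each containing 0.1% formic acid. Dead and dwell volumes were 40 μL and 900 μL, and data were collected over 3 months. Retention time was read from computationally picked adduct peaks, each inspected manually.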

First: COc1ccc(CN(CCN(C)C)c2ncccn2)cc1
Second: CCCCn1cc(S(=O)(=O)NCc2ccc(C)cc2)c2cccnc21
The RP-LC retention time of the first is lower: 707 s for the first, 984 s for the second.

Compared with Cn1nccc1C(=O)N1CCCC1c1ccccc1Cl (stereo unspecified), CCN1CCN(c2ccc(NC(=O)c3ccccc3Cl)cn2)C1=O is lower in RP-LC retention time: 823 s for the first, 672 s for the second.

First: Cc1cc(-c2nn3c(C4CCCCC4)nnc3s2)c2ccccc2n1
Second: O=C(Cn1cnc2ccccc2c1=O)N1CCC(c2nnc(-c3ccco3)o2)CC1
The RP-LC retention time of the first is higher: 949 s for the first, 621 s for the second.

Going from NC(=O)C1CCN(c2oc(-c3ccco3)nc2S(=O)(=O)c2ccccc2)CC1 to Cc1oc(-c2[nH]ncc2C(=O)N2CCCCC2)cc1S(=O)(=O)Nc1ccccc1, the RP-LC retention time rises from 652 s to 730 s.

Going from Cc1sc(-c2cc(C(F)(F)F)on2)cc1S(=O)(=O)N1CCN(c2ccccn2)CC1 to CCCN1C(=O)c2cc(S(=O)(=O)N3CCCCC3)ccc2Oc2cccnc21, the RP-LC retention time rises from 891 s to 1110 s.

Compared with O=C(O)CNC(=O)C1CCCN(S(=O)(=O)c2ccc(F)cc2)C1 (stereo unspecified), Cc1nc(-c2csc(S(=O)(=O)N3CCCC(C(=O)Nc4ccc(F)cc4)C3)c2)no1 (stereo unspecified) is higher in RP-LC retention time: 634 s for the first, 946 s for the second.

First: CCN1CC(c2nc(-c3ccccc3)no2)C2(CCCC2)C1 (stereo unspecified)
Second: COCCCNC(=O)C1c2ccccc2C(=O)N(C2CCCCC2)C12CCCCC2 (stereo unspecified)
The RP-LC retention time of the first is lower: 709 s for the first, 946 s for the second.

Compared with CN(C)S(=O)(=O)c1ccc2c(c1)N(CC(=O)Nc1ccc(Cl)cc1)C(=O)C1CCCCN21 (stereo unspecified), Cc1cc(=O)n(CC(=O)Nc2ccc(Cl)cc2)c(N2CCCC2)n1 is lower in RP-LC retention time: 988 s for the first, 672 s for the second.

Compared with CC(C)(C)c1ccc(C(=O)CCCN2CCC(OC(c3ccccc3)c3ccccc3)CC2)cc1, CCOc1nc2ccccc2nc1N1CCCC(C(=O)Nc2ccccc2CC)C1 (stereo unspecified) is lower in RP-LC retention time: 1190 s for the first, 1120 s for the second.

Going from CCC(=O)N1CCc2cc(C(=O)NC)ccc21 to CCC(=O)NCc1nc2c(n1CC)CN(C(=O)c1cccc(Br)c1)CC2, the RP-LC retention time falls from 626 s to 596 s.

Going from O=C1C(=O)N(Cc2ccc(C(=O)N3CCCCC3)cc2)CCN1Cc1ccc(F)cc1 to O=C(c1ccc2c(c1)OCO2)N1CCC(n2nc(-c3ccsc3)ccc2=O)CC1, the RP-LC retention time rises from 735 s to 764 s.

Compared with CCc1ccc(NC(=O)Cn2c(N3CCOCC3)nc(C)cc2=O)cc1, Cc1cc(C)cc(C(=O)Nc2cnc(N3CCOCC3)nc2)c1 is higher in RP-LC retention time: 711 s for the first, 824 s for the second.

First: CCCN(C)c1nccn2c(=O)n(CC(=O)Nc3cccc(C(F)(F)F)c3)nc12
Second: CC1(C)C(=O)N(CC(=O)Nc2ccccc2F)c2ccccc21
The RP-LC retention time of the first is lower: 753 s for the first, 869 s for the second.

First: COCCNC(=O)CCCN1C(=O)c2ccccc2Sc2ncccc21
Second: Cn1cc(-c2cc3n(n2)CCCN3C(=O)CCC(=O)NCc2ccccn2)c2ccccc21
The RP-LC retention time of the first is higher: 634 s for the first, 629 s for the second.

Going from CCc1nc(-c2csc(S(=O)(=O)N3CCC(C(=O)NC4CCCC4)CC3)c2)no1 to O=C(Cn1cnc2nc(N3CCC(C(=O)NC4CC4)CC3)sc2c1=O)NCC1CCCO1 (stereo unspecified), the RP-LC retention time falls from 880 s to 589 s.

Compared with CCN1CCN(CCNC(=O)CCC(=O)N2CC3CCCN3c3ccccc32)CC1 (stereo unspecified), CCOC(=O)C1CCN(C(=O)C(C)N2C(=O)C3CCCCN3C(=O)c3ccccc32)CC1 (stereo unspecified) is higher in RP-LC retention time: 561 s for the first, 745 s for the second.

Going from O=C(NCc1cccs1)C(=O)c1cccn1Cc1ccc(F)cc1 to O=C(NCc1ccc(F)cc1)c1cc(-c2ccc(F)cc2)ns1, the RP-LC retention time rises from 1010 s to 1030 s.

Going from COc1cccc(CNC(=O)C2(C)CCCN(C(=O)Nc3ccc(F)c(Cl)c3)C2)c1 (stereo unspecified) to Cc1ccc(CNC(=O)c2cccc(C3CCCN(C(=O)NC(C)C)C3)c2)cc1C (stereo unspecified), the RP-LC retention time falls from 959 s to 952 s.

Compared with COc1cccc(N2CCN(C(=O)Cn3ccc4c(c(C)nn4-c4ccccc4)c3=O)CC2)c1, CCn1c(N2CCN(C(=O)Nc3cccc(C(C)=O)c3)CC2)nc2ccccc21 is lower in RP-LC retention time: 828 s for the first, 576 s for the second.

First: CCCC(C)C(=O)NC1CCN(C2=NS(=O)(=O)C(c3ccc(C)c(C)c3)=C2C)CC1 (stereo unspecified)
Second: Cc1ccc(NC(=O)NCC2CCOCC2)cc1C
The RP-LC retention time of the first is higher: 927 s for the first, 726 s for the second.

Going from CCOc1ccc2nc(Nc3nc(C)c4c(n3)CCCC4)nc(C)c2c1 to COc1ccc(CCN2CN=C(Nc3nc(C)c4cc(C)ccc4n3)NC2)cc1OC, the RP-LC retention time rises from 573 s to 722 s.

Going from O=C(NCc1ccc2c(c1)OCO2)c1csc(NS(=O)(=O)c2cccs2)n1 to CCc1ccccc1NS(=O)(=O)c1cc(-c2nc(C(C)(C)C)cs2)cs1, the RP-LC retention time rises from 721 s to 1290 s.

Compared with CC(C)(C)c1noc(-c2ccnc(-n3cnc(C(=O)NCC4CC4)c3)c2)n1, CC(C)CNC(=O)c1cn(-c2ccc(-c3nc(C(C)(C)C)no3)cn2)cn1 is lower in RP-LC retention time: 1110 s for the first, 1020 s for the second.

Going from Cc1nn(S(=O)(=O)N(C)C)c(C)c1Br to CSc1nnc(NC(=O)CN(C)S(C)(=O)=O)s1, the RP-LC retention time falls from 881 s to 603 s.

Going from O=C(c1cccnc1N1CCNC(c2ccccc2)C1)N1CCN(c2ncccn2)CC1 (stereo unspecified) to O=C(NC1CCCC1)c1nc(C(=O)N2CCN(c3ncccn3)CC2)cs1, the RP-LC retention time rises from 604 s to 759 s.

Compared with CCCc1cc(N2CCN(C(=O)COc3ccc(F)cc3)CC2)nc2nnc(C)n12, Cc1cc(C)cc(C(=O)N2CCN(c3nc(C)cc(N4CCOCC4)n3)CC2)c1 is higher in RP-LC retention time: 645 s for the first, 653 s for the second.

Going from CCC(=O)N1CC(=O)N(CC)C2(CCOCC2)C1 to CCN1C(=O)C2(CCN(C(=O)CC(C)C)CC2)c2ccccc21, the RP-LC retention time rises from 561 s to 818 s.

Compared with CCOc1ccc(/C=C2\CCc3ccccc3C2=O)cc1, CCOc1ccc(-c2nc(C3CC(=O)N(c4ccc(C)cc4)C3)no2)cc1 (stereo unspecified) is lower in RP-LC retention time: 1290 s for the first, 1070 s for the second.

Going from Cc1ccc(NC(=O)CSC2=C(C#N)C(c3cccs3)CC(=O)N2)cc1Cl (stereo unspecified) to Cc1ccc2c(c1)C(O)(CC(=O)c1ccc(F)cc1)C(=O)N2 (stereo unspecified), the RP-LC retention time falls from 915 s to 717 s.

First: CN(C)[C@@H]1CN(C(=O)COc2ccccc2)C[C@H]1CO
Second: O=C(NC1CC1)[C@@H]1C[C@H](Oc2ccccc2)CN1C(=O)Cn1c(=O)oc2ccccc21
The RP-LC retention time of the first is lower: 546 s for the first, 786 s for the second.

First: Cn1c(=O)n([C@@H]2CCN(C(=O)c3ccc4c(c3)OCO4)C2)c2ncccc21
Second: O=C(c1cccc(Cl)c1)N1CCN(C(=O)c2nnn3c2COC(c2ccccc2)C3)CC1 (stereo unspecified)
The RP-LC retention time of the first is lower: 688 s for the first, 900 s for the second.

Compared with CCC1CCCCN1CCCNC(=O)c1c(N2CCCC2=O)c2cc(OC)ccc2n1C (stereo unspecified), Cc1sc(NC(=O)C2CCCCC2)nc1-c1ccc2c(c1)N(C)C(=O)CO2 is higher in RP-LC retention time: 638 s for the first, 1040 s for the second.

Compared with O=C(NCC1CCOCC1)c1ccc2ccccc2n1, COc1ccccc1C1=NS(=O)(=O)c2cc(S(=O)(=O)N3CCOCC3)ccc2N1 is lower in RP-LC retention time: 782 s for the first, 718 s for the second.

Going from O=C(NC(c1ccccc1)c1nnc(-c2ccccc2Cl)o1)c1ccco1 (stereo unspecified) to Cn1c(CNc2nc3ccncc3n(Cc3ccccc3)c2=O)nc2ccccc21, the RP-LC retention time falls from 908 s to 571 s.

First: CC(C)c1cc(C(=O)Nc2ccc(Cl)cc2)nn1C1CCS(=O)(=O)C1 (stereo unspecified)
Second: CCC(C)NC(=O)c1cn(-c2ccc(-c3nc(C4CC4)no3)cn2)cn1 (stereo unspecified)
The RP-LC retention time of the first is higher: 936 s for the first, 883 s for the second.

Going from COC(=O)C(C)Sc1ncnc2sc(C)c(C)c12 (stereo unspecified) to CCn1c(C)cc(=O)c2cc(C(=O)Nc3nc(C)c(C)s3)ccc21, the RP-LC retention time falls from 955 s to 578 s.

First: C=CCNC(=O)c1cc(=O)[nH]c2c(Cl)cccc12
Second: CCN(CC)C(=O)c1cc(=O)[nH]c2ccccc12
The RP-LC retention time of the first is higher: 641 s for the first, 624 s for the second.

COc1cc(OC)cc(-c2nnc(Cc3nc(-c4ccccc4C)no3)o2)c1 and COC(=O)c1ccc(OC)c(Cn2cnc3c(-c4ccccc4C)csc3c2=O)c1 are the same in RP-LC retention time: 1060 s for the first, 1060 s for the second.

Compared with O=C([C@@H]1C[C@H](F)CN1S(=O)(=O)Cc1ccccc1Cl)N1CCc2ccccc2C1, O=C1[C@H]2CN(Cc3ccccc3Cl)C[C@H]2C(=O)N1CCN1CCc2ccccc2C1 is lower in RP-LC retention time: 986 s for the first, 661 s for the second.

Going from O=C(NCCC1=CCCCC1)C(=O)NCC1(CO)CC1 to Cc1cc(C)c(CNC(=O)C2CC(=O)N(c3cccc(NC(=O)C4CCC4)c3)C2)c(C)c1 (stereo unspecified), the RP-LC retention time rises from 713 s to 892 s.

Compared with COc1ccc(-c2nc(C)cc(C)c2CNS(=O)(=O)c2ccccc2F)cc1, COc1ccc(CC(=O)Nc2c(-c3ccc(F)cc3)nc3ccccn23)cc1OC is lower in RP-LC retention time: 650 s for the first, 597 s for the second.

Going from Cc1cccc(CNc2cc(-n3ccnc3)ncn2)c1 to Cc1ccn2c(Nc3ccc4c(c3)OCCO4)c(-c3cccc(Cl)c3)nc2c1, the RP-LC retention time rises from 656 s to 727 s.

First: Cc1cccc(-c2nc(C3CCN(S(=O)(=O)c4ccc(F)cc4)CC3)no2)c1
Second: Cc1ccc(N2CC(c3noc(-c4ccc(N(C)C)cc4)n3)CC2=O)cc1 (stereo unspecified)
The RP-LC retention time of the first is higher: 1110 s for the first, 980 s for the second.

Going from Cn1nc(-c2nnc(-c3ccccc3F)o2)c2c1CCN(S(=O)(=O)c1ccc3c(c1)CCCC3)C2 to CC(C)Cn1nc2n(c1=O)CCN(S(=O)(=O)Cc1ccccc1)CC2, the RP-LC retention time falls from 1090 s to 777 s.

Compared with CC(=O)O[C@H]1C[C@@H]2OC3C=C(C)CCC3(C)[C@@]1(C)[C@@]21CO1 (stereo partly specified), CCc1ccc(-c2noc(CN3C(=O)COc4ccc(C)cc43)n2)cc1 is higher in RP-LC retention time: 833 s for the first, 1160 s for the second.

In the case of CCC(C(=O)NCCc1ccco1)n1c2ccccc2c2cnn(C)c(=O)c21 (stereo unspecified), the RP-LC retention time is reported as 864 s.
